# Target: T1, delta opioid receptor (Rattus norvegicus, UniProt P33533)
# T1 construct: from tissue; host or cells: forebrain of male Wistar rats (particulate membrane preparation)
# Assay: Rat Brain Delta Opioid Receptor Binding Assay
# Conditions: not given
# Protocol: Procedure: Male, Wistar rats (150-250 g, VAF, Charles River, Kingston, N.Y.) were killed by CO2, and their brains were removed and placed immediately in ice cold Tris HCl buffer (50 mM, pH 7.4). The forebrains were separated from the remainder of the brain by a coronal transection, beginning dorsally at the colliculi and passing ventrally through the midbrain-pontine junction. After dissection, the forebrains were homogenized in Tris buffer in a Teflon®-glass homogenizer. The homogenate was diluted to a concentration of 1 g of forebrain tissue per 80 mL Tris and centrifuged at 39,000×g for 10 min. The pellet was resuspended in the same volume of Tris buffer containing 5 mM MgCl2 with several brief pulses from a Polytron homogenizer. This particulate preparation was used for the delta opioid binding assays. Following incubation with the delta selective peptide ligand ˜4 nM [^3H]DPDPE or 0.15 nM [^3H]naltrindole at 25° C. for 2.5 h in a 96-well plate with total volume of […], the plate contents were filtered through Wallac filtermat B sheets on a Tomtec 96-well harvester. The filters were rinsed three times with 2 mL of 10 mM HEPES (pH 7.4), and dried in a 650 W microwave oven for 1.75 min twice. To each sample area 2×50 μL of Betaplate Scint scintillation fluid (LKB) was added and the radioactivity was quantified on a LKB (Wallac) 1205 BetaPlate liquid scintillation counter.
# Analysis: The data from the scintillation counter was used to calculate either the % inhibition compared to control binding (when only a single concentration of test compound was evaluated) or a Ki value (when a range of concentrations was tested). Percent inhibition was calculated as: [(total dpm-test compound dpm)/(total dpm-nonspecific dpm)]*100. Kd and Ki values were calculated using GraphPad PRISM data analysis program.
# T1 sequence (P33533 whole entry): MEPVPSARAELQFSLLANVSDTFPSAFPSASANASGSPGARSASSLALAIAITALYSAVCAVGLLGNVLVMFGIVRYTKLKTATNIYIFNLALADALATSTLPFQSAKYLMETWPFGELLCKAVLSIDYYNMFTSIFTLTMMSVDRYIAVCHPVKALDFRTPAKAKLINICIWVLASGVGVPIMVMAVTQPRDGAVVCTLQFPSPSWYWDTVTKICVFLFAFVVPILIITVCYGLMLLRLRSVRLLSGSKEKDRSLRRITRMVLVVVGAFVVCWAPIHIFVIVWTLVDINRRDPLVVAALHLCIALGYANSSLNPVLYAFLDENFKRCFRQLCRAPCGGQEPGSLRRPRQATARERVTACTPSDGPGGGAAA
row,SMILES,Ki
1,"CCN(CC)C(=N)c1ccc2c(c1)Oc1ccccc1C2C1CCN(Cc2ccoc2)CC1 (stereo not shown) [3p, N,N-Diethyl-9-(1-furan-3-ylmethyl-piperidin-4-yl)-9H-xanthene-3-carboxamidine]",16.1 nM
2,"Oc1cccc2c1Oc1cc(-c3cccnc3)ccc1C2C1CCN(Cc2cccs2)CC1 (stereo not shown) [4i, 6-Pyridin-3-yl-9-(1-thiophen-2-ylmethyl-piperidin-4-yl)-9H-xanthen-4-ol]",96.7 nM
3,"Oc1cccc2c1Oc1cc(-c3nnn[nH]3)ccc1C2C1CCNCC1 (stereo not shown) [4r, 9-Piperidin-4-yl-6-(1H-tetrazol-5-yl)-9H-xanthen-4-ol]",14 nM
4,"CC(=O)Nc1ccccc1-c1ccc2c(c1)Oc1c(O)cccc1C2C1CCN(Cc2ccccn2)CC1 (stereo not shown) [5e, N-{2-[5-Hydroxy-9-(1-pyridin-2-ylmethyl-piperidin-4-yl)-9H-xanthen-3-yl]-phenyl}-acetamide]",0.1 nM
5,"Oc1cccc2c1Oc1cc(-c3cccnc3)ccc1C2C1CCN(Cc2ccccc2)CC1 (stereo not shown) [5i, 9-(1-Benzyl-piperidin-4-yl)-6-pyridin-3-yl-9H-xanthen-4-ol]",94 nM
6,"CC(=O)Nc1ccccc1-c1ccc2c(c1)Oc1c(O)cccc1C2C1CCN(Cc2cccs2)CC1 (stereo not shown) [6e, N-{2-[5-Hydroxy-9-(1-thiophen-2-ylmethyl-piperidin-4-yl)-9H-xanthen-3-yl]-phenyl}-acetamide]",0.1 nM
7,"C=CCN1CCC(C2c3ccc(-c4cccnc4)cc3Oc3c(O)cccc32)CC1 (stereo not shown) [6i, 9-(1-Allyl-piperidin-4-yl)-6-pyridin-3-yl-9H-xanthen-4-ol]",27.5 nM
8,"COc1cccc2c1Sc1cc(-c3cccnc3)ccc1C2C1CCNCC1 (stereo not shown) [9q, 3-(5-Methoxy-9-piperidin-4-yl-9H-thioxanthen-3-yl)-pyridine]",87.8 nM
9,"Oc1cccc2c1Sc1cc(-c3cccnc3)ccc1C2C1CCNCC1 (stereo not shown) [10q, 9-Piperidin-4-yl-6-pyridin-3-yl-9H-thioxanthen-4-ol]",0.2 nM
10,"COc1cccc2c1Sc1cc(-c3ccncc3)ccc1C2C1CCNCC1 (stereo not shown) [11q, 4-(5-Methoxy-9-piperidin-4-yl-9H-thioxanthen-3-yl)-pyridine]",68.1 nM
11,"Oc1cccc2c1Sc1cc(-c3ccncc3)ccc1C2C1CCNCC1 (stereo not shown) [12q, 9-Piperidin-4-yl-6-pyridin-4-yl-9H-thioxanthen-4-ol]",0.7 nM
12,"CC(=O)Nc1ccccc1-c1ccc2c(c1)Sc1c(O)cccc1C2C1CCNCC1 (stereo not shown) [14q, N-[2-(5-Hydroxy-9-piperidin-4-yl-9H-thioxanthen-3-yl)-phenyl]-acetamide]",0.2 nM
13,"Oc1cccc2c1Sc1cc(-c3ccncc3)ccc1C2C1CCN(Cc2ccccn2)CC1 (stereo not shown) [15q, 6-Pyridin-4-yl-9-(1-pyridin-2-ylmethyl-piperidin-4-yl)-9H-thioxanthen-4-ol]",0.1 nM
14,"Oc1cccc2c1Sc1cc(-c3cccnc3)ccc1C2C1CCN(Cc2ccccn2)CC1 (stereo not shown) [18q, 6-Pyridin-3-yl-9-(1-pyridin-2-ylmethyl-piperidin-4-yl)-9H-thioxanthen-4-ol]",0.4 nM
15,"CC(=O)Nc1ccccc1-c1ccc2c(c1)Sc1c(O)cccc1C2C1CCN(Cc2ccccn2)CC1 (stereo not shown) [19q, N-{2-[5-Hydroxy-9-(1-pyridin-2-ylmethyl-piperidin-4-yl)-9H-thioxanthen-3-yl]-phenyl}-acetamide]",0.1 nM

# Same assay, conditions: rat forebrain membranes; [3H]DPDPE or [3H]naltrindole, 25° C., 2.5 h; read-out: delta (Ki)
row,SMILES,Ki
1,"N#Cc1ccc2c(c1)Oc1c(O)cccc1C2C1CCNCC1 (stereo not shown) [5r, 5-Hydroxy-9-piperidin-4-yl-9H-xanthene-3-carbonitrile]",166 nM
2,"C=CCN1CCC(C2c3ccccc3Oc3cc(C(=O)N4CC[C@H](O)C4)ccc32)CC1 (stereo partly drawn) [7n, [9-(1-Allyl-piperidin-4-yl)-9H-xanthen-3-yl]-(3-(S)-hydroxy-pyrrolidin-1-yl)-methanone]",9230 nM
3,"COc1cccc2c1Sc1cc(-c3ccccc3NC(C)=O)ccc1C2C1CCNCC1 (stereo not shown) [13q, N-[2-(5-Methoxy-9-piperidin-4-yl-9H-thioxanthen-3-yl)-phenyl]-acetamide]",110 nM
4,"C=CCN1CCC(C2c3ccc(-c4ccccc4NC(C)=O)cc3Sc3c(O)cccc32)CC1 (stereo not shown) [16q, N-{2-[9-(1-Allyl-piperidin-4-yl)-5-hydroxy-9H-thioxanthen-3-yl]-phenyl}-acetamide]",121 nM

# From patent US20060135522A1, “Tricyclic delta-opioid modulators” (priority 2004, published 2006)
